# What was measured:
# Format in all cases: cell-based, mouse
# [1] = tested on: mESCs derived spinal NPCs; assay: Sufficiency of Wnt ligands or CHIR for dI fates (RT-qPCR at day 9)
# Description: (§1) The mouse ESC line, MM13, was routinely maintained in ES cell media (DMEM+20% FBS) with 100u/ml of mouse leukocyte inducing factor (LIF). […] To prepare cells for the differentiation, ESC colonies were dissociated with 0.25% trypsin and plated on gelatin coated plates at 1:10 dilution to reduce MEF transfer. Cells cultured on gelatin coated plates and allowed to proliferate for 1-2 days. To initiate differentiation, cells were plated on 0.1% gelatin coated 24-well CellBIND dishes (Corning) at 20,000 cells/ml density in 0.5 ml/well N2/B27 medium that contains 10 ng/ml basic fibroblast growth factor (bFGF). The N2/B27 medium contains 1:1 portions of Advanced Dulbecco's modified Eagle Media (DMEM) F12 (Hyclone) and Neurobasal media (Thermo Fisher Scientific) supplemented with 0.5×N2, 1×B27 supplement (with Vitamin A), 2 mM L-glutamine, 0.1 mM 2-mercaptoethanol (ME), and 1% BSA. On day 1, small colonies of cells can be observed attached to the bottom of the wells. On day 2, cells were supplemented with 10 ng/ml bFGF and 5 μM CHIR99021 for 24 hours to induce a neuromesodermal identity (Gouti et al., 2014). On day 3, media was changed as follows: for protocol 1, cells were exposed to 100 nM RA for 48 hrs. For protocol 2, 10 ng/ml human recombinant BMP4 (Thermo Fisher Scientific) was added concomitantly with 100 nM RA (RA+BMP4) for 48 hrs. For protocol 3, cells were exposed to 100 nM RA for 24 hrs, followed by a pulse of RA+BMP4 for another 24 hours. To induce terminal differentiation in all three conditions, the medium containing growth factors was replaced with basic N2/B27 medium at day 5, and cell allowed to differentiate to day 9. At the end of the differentiation, the cultures were fixed for immunohistochemical analysis or lysed to obtain RNA for RNA-Seq or quantitative reverse transcriptase PCR analysis.
# Quantitative (a) RT-PCR analysis: RNA was isolated with RNeasy Mini Kit (Qiagen, cat no. 74104), and converted to cDNA using Superscript IV First Strand Synthesis kit (Thermo Fisher Scientific). qRT-PCR was performed using SYBR Green PCR Master Mix (Applied Biosystems) on Roche 480 Lightcycler (Roche). The relative fold expression was calculated using 2-AACt method of comparing the expression of the target gene with that of the housekeeping gene glyceraldehyde 3-phosphate dehydrogenase (Gapdh). All experiments were repeated at least 2-3 times (technical replicates) from at least two independent differentiations (biological replicates), and data is represented as mean±SEM.
# We assessed these models, first by determining the effect of canonical Wnts (Wnt1, Wnt2, and Wnt3a), a non-canonical Wnt (Wnt9b) and a small molecule Wnt agonist (CHIR99021) on dI identity in the RA±BMP4 protocols. When Wnts were added in combination with RA, they were unable to induce the dorsal-most dIs by day 9 (FIG. 14A). […] Thus, Wnts are not sufficient to direct dI fate identity.
# CHIR-expanded EBs = assay: Differentiation of CHIR-expanded EBs on Matrigel (IHC, RT-qPCR at day 10)
# Description: Embryoid body (EB) differentiation: To induce differentiation, EBs were dissociated into smaller clumps by a 5-7-minute treatment with cold 0.25% Trypsin (Gibco), followed by trituration. Trypsin was neutralized with 1:1 addition of Trypsin inhibitor (Sigma-Aldrich) and cells were pelleted by centrifugation at 1000RPM. Cell pellets were resuspended in N2/B27 medium (without growth factors) and plated onto a Matrigel precoated plate. In our experience, the single cell suspension of 100-150 EBs provided enough cells to seed one 24-well plate. […] At the end of 10 days, multiple neural processes can be visualized by phase contrast microscopy and cultures were either fixed with 4% PFA for immunohistochemistry or lysed to extract RNA in RLT buffer (Qiagen). […] CHIR withdrawal), or DAPT, a pro-differentiation agent (Crawford and Roelink, 2007) (FIG. 7J). […] This strategy was successful at restoring almost all dI identities in cultures taken from EBs both at the earliest passage and at the latest passage assessed (passage 7;
# mESCs-derived NMPs = assay: 2D directed differentiation of NMPs with RA/BMP4, immunohistochemistry (pSmad1/5/8, Pax3, Pax6, Sox2, Tuj1, Pax2); conditions: 24 hr pulse of RA at day 3
# Description: as §1, with “For protocol 2, 10 ng/ml human recombinant BMP4 (Thermo Fisher Scientific) was added concomitantly with 100 nM RA (RA+BMP4) for 48 hrs. For protocol 3, cells were exposed to 100 nM RA for 24 hrs, followed by a pulse of RA+BMP4 for another 24 hours. To induce terminal differentiation in all three conditions, the medium containing growth factors was replaced with basic N2/B27 medium at day 5, and cell allowed to differentiate to day 9.” left out, “analysis. […]” for “analysis.”
SMILES,"identity of the BMP4-mediated dI fates (Lhx2, Foxd3, IsI2) ([1]; RA+BMP4 protocol, Wnts 100 ng/ml or CHIR 5 μM for 24 hrs at day 5)","induction of BMP4 dependent dI fates (Lhx2, Foxd3, IsI1) ([1]; added with RA at day 4 for 24 hrs, Wnts 100 ng/ml, CHIR 5 μM)",identity of cultures kept in CHIR by day 10 (CHIR-expanded EBs; passage 6 or 7 EBs dissociated onto Matrigel),"effect of CHIR removal on differentiation (CHIR-expanded EBs; passage 6 or 7 EBs, day 10)",Pax3+ cells by day 4 (mESCs-derived NMPs),increase in the number of dI4/dI6s (Pax2+) compared to control (CHIR-expanded EBs; pulse between day 3 and 5 during differentiation of expanded EBs)
"Cc1c[nH]c(-c2cnc(NCCNc3ccc(C#N)cn3)nc2-c2ccc(Cl)cc2Cl)n1 [CHIR, CHIR99021]",no significant effect,do not induce BMP4-dependent dI fates,continued to be solely Sox2^+,removal of CHIR triggers spontaneous neural differentiation,–,–
"CC1=C(/C=C/C(C)=C/C=C/C(C)=C/C(=O)O)C(C)(C)CCC1 [RA, retinoic acid]",–,–,–,–,90-95%,~ 6 fold

# From patent publication US20260275280A1, “DIRECTED DIFFERENTIATION PROTOCOLS TO DERIVE BONE FIDE SPINAL SENSORY INTERNEURONS” (THE REGENTS OF THE UNIVERSITY OF CALIFORNIA, priority 2022, published 2026)
